Results taken from patent US9131690B2, “Macrocyclic picolinamides as fungicides” (Dow AgroSciences LLC, priority 2012, dated 2015).
Where two headings read alike, the source gives them in different places.

Columns and labels:
[1] = tested on: Mycosphaerella graminicola; Anamorph: Septoria tritici; experiment: Fungicidal activity: Leaf Blotch of Wheat (SEPTTR), wheat plants variety Yuma; format: in vivo; parameters: key to SEPTTR 3DC Disease Control: A: 50-100; B: More than 0-Less than 50; C: Not Tested; D: No activity noticed in this bioassay; details: for pest or weed control at 100 ppm: Zymoseptoria tritici
Procedure: Evaluation of Fungicidal Activity: Leaf Blotch of Wheat (Mycosphaerella graminicola; Anamorph: Septoria tritici; Bayer Code […]) Wheat plants (variety Yuma) were grown from seed in a greenhouse in 50% mineral soil/50% soil-less Metro mix until the first leaf was fully emerged, with 7-10 seedlings per pot. These plants were inoculated with an aqueous spore suspension of Septoria tritici either prior to or after fungicide treatments. After inoculation the plants were kept in 100% relative humidity (one day in a dark dew chamber followed by two to three days in a lighted dew chamber) to permit spores to germinate and infect the leaf. The plants were then transferred to a greenhouse at 20° C. for disease to develop.

[2] = tested on: Puccinia triticina. Synonym: Puccinia recondite f. sp. tritici; experiment: Fungicidal activity: Wheat Brown Rust (PUCCRT), wheat plants variety Yuma; format: in vivo; parameters: key to PUCCRT 3DC Disease Control: A: 50-100; B: More than 0-Less than 50; C: Not Tested; D: No activity noticed in this bioassay; details: for pest or weed control at 100 ppm: Puccinia triticina; for PUCCRT 3DC Disease Control: 100 ppm
Procedure: Evaluation of Fungicidal Activity: Wheat Brown Rust (Puccinia triticina. Synonym: Puccinia recondite f. sp. tritici; Bayer Code PUCCRT) Wheat plants (variety Yuma) were grown from seed in a greenhouse in 50% mineral soil/50% soil-less Metro mix until the first leaf was fully emerged, with 7-10 seedlings per pot. These plants were inoculated with an aqueous spore suspension of Puccinia recondite f. sp. tritici either prior to or after fungicide treatments. After inoculation the plants were kept in 100% relative humidity overnight to permit spores to germinate and infect the leaf. The plants were then transferred to a greenhouse set at 24 C for disease to develop.

[3] = 24 h, 1 Day Protectant, read-out: SEPTTR 1DP Disease Control
[4] = 72 h, 3 Day Curative, read-out: SEPTTR 3DC Disease Control
[5] = 24 h, 1 Day Protectant, read-out: PUCCRT 1DP Disease Control
[6] = 72 h, 3 Day Curative, read-out: PUCCRT 3DC Disease Control

| Compound | melting point [°C] | pest or weed control at 100 ppm [1, 3] [%] | pest or weed control at 100 ppm [1, 4] [%] | pest or weed control at 100 ppm [2, 5] [%] | pest or weed control at 100 ppm [2, 6] [%] | SEPTTR 3DC Disease Control ([1]; 100 ppm, 3 Day Curative) | PUCCRT 3DC Disease Control ([2]; 3 Day Curative) |
| --- | --- | --- | --- | --- | --- | --- | --- |
| COc1ccnc(C(=O)N[C@H]2COC(=O)[C@H](CCc3cccnc3)[C@@H](OC(=O)C(C)C)[C@H](C)OC2=O)c1O [Compound 59] | 169 to 170 | 0 to 50 | 0 to 50 | 50 to 100 | 0 to 50 | – | – |
| COc1ccnc(C(=O)N[C@H]2COC(=O)[C@H](Cc3cccnc3)[C@@H](OC(=O)C(C)C)[C@H](C)OC2=O)c1OCOC(=O)C(C)C [Compound 23] | 171 to 174 | 0 to 50 | 0 to 50 | 50 to 100 | 50 to 100 | – | – |
| COc1ccnc(C(=O)N[C@H]2COC(=O)[C@H](CC3CCCCC3)[C@@H](OC(=O)C(C)C)[C@H](C)OC2=O)c1OC(C)=O [Compound 66, (3S,6S,7R,8R)-3-(3-acetoxy-4-methoxypicolinamido)-8-(cyclohexylmethyl)-6-methyl-4,9-dioxo-1,5-dioxonan-7-yl isobutyrate] | 164 to 170 | 50 to 100 | 50 to 100 | 50 to 100 | 50 to 100 | – | – |
| COc1ccnc(C(=O)N[C@H]2COC(=O)[C@H](CC(=O)Oc3ccccc3)[C@@H](OC(=O)C(C)C)[C@H](C)OC2=O)c1O [Compound 48] | 176 to 178 | 50 to 100 | 0 to 50 | 50 to 100 | – | – | D |
| COc1ccnc(C(=O)N[C@H]2COC(=O)[C@H](CCn3cc(-c4ccccc4)nn3)[C@@H](OC(=O)C(C)C)[C@H](C)OC2=O)c1O [Compound 55] | 222 to 224 | 50 to 100 | 0 to 50 | 50 to 100 | 0 to 50 | – | – |

Second part, led by results:

| melting point [°C] | Compound | pest or weed control at 100 ppm [1, 3] [%] | pest or weed control at 100 ppm [1, 4] [%] | pest or weed control at 100 ppm [2, 5] [%] | pest or weed control at 100 ppm [2, 6] [%] | SEPTTR 3DC Disease Control ([1]; 100 ppm, 3 Day Curative) | PUCCRT 3DC Disease Control ([2]; 3 Day Curative) |
| --- | --- | --- | --- | --- | --- | --- | --- |
| 198 to 200 | COc1ccnc(C(=O)N[C@H]2COC(=O)[C@H](C)[C@@H](OC(=O)C(C)C)[C@H](C)OC2=O)c1O [Compound 46, (3S,6S,7R,8R)-3-(3-hydroxy-4-methoxypicolinamido)-6,8-dimethyl-4,9-dioxo-1,5-dioxonan-7-yl isobutyrate] | 50 to 100 | – | 50 to 100 | 0 to 50 | D | – |
| 92 to 95 | COc1ccnc(C(=O)N[C@H]2COC(=O)[C@H](Cc3ccccn3)[C@@H](OC(=O)C(C)C)[C@H](C)OC2=O)c1O [Compound 3] | 50 to 100 | 50 to 100 | 50 to 100 | 50 to 100 | – | – |
| 148 to 155 | COc1ccnc(C(=O)N[C@H]2COC(=O)[C@H](Cc3cccnc3)[C@@H](OC(=O)C(C)C)[C@H](C)OC2=O)c1O [Compound 2] | 50 to 100 | 50 to 100 | 50 to 100 | 50 to 100 | – | – |
| 131 to 134 | CCCCCCC[C@H]1C(=O)OC[C@H](NC(=O)c2nccc(OC)c2O)C(=O)O[C@@H](C)[C@@H]1OC(=O)C(C)C [Compound 63, (3S,6S,7R,8R)-8-heptyl-3-(3-hydroxy-4-methoxypicolinamido)-6-methyl-4,9-dioxo-1,5-dioxonan-7-yl isobutyrate] | 50 to 100 | 0 to 50 | 50 to 100 | – | – | D |
| 183 to 184 | COc1ccnc(C(=O)N[C@H]2COC(=O)[C@H](CCc3ccccc3)[C@@H](OC(=O)C(C)C)[C@H](C)OC2=O)c1O [Compound 57, (3S,6S,7R,8R)-3-(3-hydroxy-4-methoxypicolinamido)-6-methyl-4,9-dioxo-8-phenethyl-1,5-dioxonan-7-yl isobutyrate] | 50 to 100 | 0 to 50 | 50 to 100 | 50 to 100 | – | – |
| 148 to 150 | COc1ccnc(C(=O)N[C@H]2COC(=O)[C@H](CSc3ccccn3)[C@@H](OC(=O)C(C)C)[C@H](C)OC2=O)c1O [Compound 65, (3S,6S,7R,8R)-3-(3-hydroxy-4-methoxypicolinamido)-6-methyl-4,9-dioxo-8-((pyridin-2-ylthio)methyl)-1,5-dioxonan-7-yl isobutyrate] | 50 to 100 | 0 to 50 | 50 to 100 | 0 to 50 | – | – |
